Experimental data from PubChem BioAssay AID2060622 (Molecular Pharmacology Branch, DTP, NCI, 2025).

Test system: 242566-281-R-J2-PDC complex spheroid viability
Assay: Anticancer human tumor 242566-281-R-J2-PDC patient-derived pancreatic carcinoma cell line growth inhibition [CLK]
Conditions: for IC50: curve of first compound; for viability, T/C: stronger effect = lower value
How it was run: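 Patient-derived tumor cells grown as complex spheroids with HUVEC endothelial cells and mesenchymal stem cells, treated with drug combinations. Concentrations descend in half-log steps from near clinical Cmax, or from 10 microM if Cmax unknown.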

[1] = second compound 0.0316 µM, first compound 0.0316 µM
[2] = second compound 0.0316 µM, first compound 0.1 µM
[3] = second compound 0.0316 µM, first compound 0.316 µM
[4] = second compound 0.0316 µM, first compound 1 µM
[5] = second compound 0.1 µM, first compound 0.0316 µM
[6] = second compound 0.1 µM, first compound 0.1 µM
[7] = second compound 0.1 µM, first compound 0.316 µM
[8] = second compound 0.1 µM, first compound 1 µM
[9] = second compound 0.316 µM, first compound 0.0316 µM
[10] = second compound 0.316 µM, first compound 0.1 µM
[11] = second compound 0.316 µM, first compound 0.316 µM
[12] = second compound 0.316 µM, first compound 1 µM
[13] = second compound 1 µM, first compound 0.0316 µM
[14] = second compound 1 µM, first compound 0.1 µM
[15] = second compound 1 µM, first compound 0.316 µM
[16] = second compound 1 µM, first compound 1 µM
[17] = second compound 3.16 µM, first compound 0.0316 µM
[18] = second compound 3.16 µM, first compound 0.1 µM
[19] = second compound 3.16 µM, first compound 0.316 µM
[20] = second compound 3.16 µM, first compound 1 µM
[21] = second compound 10 µM, first compound 0.0316 µM
[22] = second compound 10 µM, first compound 0.1 µM
[23] = second compound 10 µM, first compound 0.316 µM
[24] = second compound 10 µM, first compound 1 µM
[25] = second compound 0.0316 µM, first compound 0.00316 µM
[26] = second compound 0.0316 µM, first compound 0.01 µM
[27] = second compound 0.1 µM, first compound 0.00316 µM
[28] = second compound 0.1 µM, first compound 0.01 µM
[29] = second compound 0.316 µM, first compound 0.00316 µM
[30] = second compound 0.316 µM, first compound 0.01 µM
[31] = second compound 1 µM, first compound 0.00316 µM
[32] = second compound 1 µM, first compound 0.01 µM
[33] = second compound 3.16 µM, first compound 0.00316 µM
[34] = second compound 3.16 µM, first compound 0.01 µM
[35] = second compound 10 µM, first compound 0.00316 µM
[36] = second compound 10 µM, first compound 0.01 µM
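Further: spheroids exposed to compounds for 7 days before readout.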
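Wherever viability, T/C is given: 100% = DMSO vehicle control wells.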

CC(Nc1ccc2c(c1)OCCn1cc(N3C(=O)OCC3C(F)F)nc1-2)C(N)=O (stereo unspecified) + CN1CCN(c2cc(C(=O)Nc3cc4cc(-c5cnn(C)c5)ccc4cn3)ccn2)CC1
IC50 (second compound 0.0316 µM): 0.829 µM | IC50 (second compound 0.1 µM): 0.428 µM | IC50 (second compound 0.316 µM): < 0.0316 µM | IC50 (second compound 1 µM): < 0.0316 µM | IC50 (second compound 3.16 µM): < 0.0316 µM | IC50 (second compound 10 µM): < 0.0316 µM | viability, T/C [1]: 98.6% | viability, T/C [2]: 85.9% | viability, T/C [3]: 66.1% | viability, T/C [4]: 47.1% | viability, T/C (second compound 0.0316 µM, first compound 3.16 µM): 30.2% | viability, T/C (second compound 0.0316 µM, first compound 10 µM): 19.6% | viability, T/C [5]: 89.7% | viability, T/C [6]: 71.6% | viability, T/C [7]: 54.1% | viability, T/C [8]: 37.7% | viability, T/C (second compound 0.1 µM, first compound 3.16 µM): 27.5% | viability, T/C (second compound 0.1 µM, first compound 10 µM): 15.9% | viability, T/C [9]: 30.8% | viability, T/C [10]: 28.4% | viability, T/C [11]: 24% | viability, T/C [12]: 16.5% | viability, T/C (second compound 0.316 µM, first compound 3.16 µM): 11.1% | viability, T/C (second compound 0.316 µM, first compound 10 µM): 6.49% | viability, T/C [13]: 3.7% | viability, T/C [14]: 3.4% | viability, T/C [15]: 2.95% | viability, T/C [16]: 2.95% | viability, T/C (second compound 1 µM, first compound 3.16 µM): 2.35% | viability, T/C (second compound 1 µM, first compound 10 µM): 1.83% | viability, T/C [17]: 6.09% | viability, T/C [18]: 5.94% | viability, T/C [19]: 5.25% | viability, T/C [20]: 4.35% | viability, T/C (second compound 3.16 µM, first compound 3.16 µM): 3.81% | viability, T/C (second compound 3.16 µM, first compound 10 µM): 3.86% | viability, T/C [21]: 2.15% | viability, T/C [22]: 2.04% | viability, T/C [23]: 1.6% | viability, T/C [24]: 1.88% | viability, T/C (second compound 10 µM, first compound 3.16 µM): 1.85% | viability, T/C (second compound 10 µM, first compound 10 µM): 1.04%

CCN1CCN(Cc2ccc(Nc3ncc(F)c(-c4cc(F)c5nc(C)n(C(C)C)c5c4)n3)nc2)CC1 + CN1CCN(c2cc(C(=O)Nc3cc4cc(-c5cnn(C)c5)ccc4cn3)ccn2)CC1
IC50 (second compound 0.0316 µM): > 1 µM | IC50 (second compound 0.1 µM): > 1 µM | IC50 (second compound 0.316 µM): < 0.00316 µM | IC50 (second compound 1 µM): < 0.00316 µM | IC50 (second compound 3.16 µM): < 0.00316 µM | IC50 (second compound 10 µM): < 0.00316 µM | viability, T/C [25]: 89.9% | viability, T/C [26]: 109% | viability, T/C [1]: 101% | viability, T/C [2]: 109% | viability, T/C [3]: 122% | viability, T/C [4]: 138% | viability, T/C [27]: 91.7% | viability, T/C [28]: 83.6% | viability, T/C [5]: 95.5% | viability, T/C [6]: 96.3% | viability, T/C [7]: 122% | viability, T/C [8]: 123% | viability, T/C [29]: 39.4% | viability, T/C [30]: 40.8% | viability, T/C [9]: 48.7% | viability, T/C [10]: 54.3% | viability, T/C [11]: 69.4% | viability, T/C [12]: 61.1% | viability, T/C [31]: 5.41% | viability, T/C [32]: 4.89% | viability, T/C [13]: 5.53% | viability, T/C [14]: 6.44% | viability, T/C [15]: 9.19% | viability, T/C [16]: 9.16% | viability, T/C [33]: 6.93% | viability, T/C [34]: 7.07% | viability, T/C [17]: 6.34% | viability, T/C [18]: 7.18% | viability, T/C [19]: 8.35% | viability, T/C [20]: 8.64% | viability, T/C [35]: 2.36% | viability, T/C [36]: 1.58% | viability, T/C [21]: 1.75% | viability, T/C [22]: 1.54% | viability, T/C [23]: 1.24% | viability, T/C [24]: 0.71%

COc1c(OCCCN2CCOCC2)ccc2c3n(c(=NC(=O)c4cnc(N)nc4)nc12)CCN3 + CN1CCN(c2cc(C(=O)Nc3cc4cc(-c5cnn(C)c5)ccc4cn3)ccn2)CC1
IC50 (second compound 0.0316 µM): 0.0255 µM | IC50 (second compound 0.1 µM): 0.0194 µM | IC50 (second compound 0.316 µM): < 0.00316 µM | IC50 (second compound 1 µM): < 0.00316 µM | IC50 (second compound 3.16 µM): < 0.00316 µM | IC50 (second compound 10 µM): < 0.00316 µM | viability, T/C [25]: 91% | viability, T/C [26]: 74.5% | viability, T/C [1]: 43.5% | viability, T/C [2]: 22.1% | viability, T/C [3]: 12.3% | viability, T/C [4]: 7.95% | viability, T/C [27]: 85.6% | viability, T/C [28]: 69.5% | viability, T/C [5]: 34.6% | viability, T/C [6]: 18.1% | viability, T/C [7]: 9.35% | viability, T/C [8]: 6.4% | viability, T/C [29]: 34% | viability, T/C [30]: 28.9% | viability, T/C [9]: 17.4% | viability, T/C [10]: 6.56% | viability, T/C [11]: 4.83% | viability, T/C [12]: 5.47% | viability, T/C [31]: 3.43% | viability, T/C [32]: 3.63% | viability, T/C [13]: 3.24% | viability, T/C [14]: 2% | viability, T/C [15]: 1.83% | viability, T/C [16]: 1.24% | viability, T/C [33]: 6.71% | viability, T/C [34]: 6.19% | viability, T/C [17]: 5.45% | viability, T/C [18]: 3.96% | viability, T/C [19]: 3.56% | viability, T/C [20]: 2.53% | viability, T/C [35]: 2.33% | viability, T/C [36]: 2.32% | viability, T/C [21]: 1.35% | viability, T/C [22]: 1.56% | viability, T/C [23]: 1.19% | viability, T/C [24]: 1.26%
